Data taken from paper PMC6515238, “Novel C-2 Symmetric Molecules as α-Glucosidase and α-Amylase Inhibitors: Design, Synthesis, Kinetic Evaluation, Molecular Docking and Pharmacokinetics” (Molecules, 2019).

Key:
[1] = target: T1, α-amylase from porcine pancreas (Sus scrofa, UniProt P00690); assay: α-Amylase inhibition assay; type: biochemical; conditions: mean ± SEM; starch substrate, DNSA
T1 construct: α-amylase from porcine pancreas (Sigma A3176-500KU, 089K1661); purchased Sigma A3176-500KU (lot 089K1661); host or cells: porcine pancreas
T1 sequence (P00690 16-511): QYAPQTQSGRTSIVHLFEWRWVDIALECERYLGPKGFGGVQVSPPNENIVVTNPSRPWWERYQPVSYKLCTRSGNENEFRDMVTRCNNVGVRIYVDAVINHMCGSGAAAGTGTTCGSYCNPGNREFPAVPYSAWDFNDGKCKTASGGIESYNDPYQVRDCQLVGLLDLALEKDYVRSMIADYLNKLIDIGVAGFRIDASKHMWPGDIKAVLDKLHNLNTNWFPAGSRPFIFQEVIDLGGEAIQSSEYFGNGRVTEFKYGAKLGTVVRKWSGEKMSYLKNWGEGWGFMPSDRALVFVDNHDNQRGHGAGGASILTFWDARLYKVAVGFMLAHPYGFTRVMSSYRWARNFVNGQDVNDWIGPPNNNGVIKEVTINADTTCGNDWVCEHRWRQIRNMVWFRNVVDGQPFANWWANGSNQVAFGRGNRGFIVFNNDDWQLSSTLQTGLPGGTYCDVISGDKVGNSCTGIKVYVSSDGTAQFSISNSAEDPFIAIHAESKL
Experimental: The α-amylase inhibitory activity of sinigrin was determined according to a previously reported method with slight modifications. Briefly, 40 μL of a solution of the test inhibitor and 40 μL of enzyme solution (α-amylase from porcine pancreas (Sigma A3176-500KU, 089K1661) in a buffer of 0.02 M sodium phosphate at pH 6.9 with 0.006 M sodium chloride) were added to a 1.5-mL Eppendorf tube and incubated for 10 min at room temperature. […] Then, 100 μL of DNSA colouring reagent (10 g of sodium potassium tartrate, 1 g of 3,5-dinitrosalicylic acid and 20 mL of 2 N NaOH to a final volume of 100 mL in distilled water) was added, and the mixture was incubated in a boiling water bath for 5 min. After cooling to room temperature, the reaction mixture was diluted to 500 μL using distilled water, and the absorbance was recorded at 540 nm. For non-enzymatic reactions, the assays were performed with a blank containing all of the components except the enzyme. The values of the % inhibition and IC50 were calculated from the results of the assays using the same procedure as that described for the α-glucosidase inhibition assays.

[2] = DPPH free radical scavenging assay; conditions: 100 µg/mL
Experimental: Radical scavenging activity was determined by modifying a previously reported 2,2-diphenyl-1-picrylhydrazyl (DPPH) assay. The assay solution consisted of 100 µL of DPPH solution (150 µM), 20 µL of the test compounds solution at increasing concentrations, and enough DMSO to bring the volume of solution in each well to 200 µL. The reaction mixture was then incubated for 30 min at room temperature. Ascorbic acid (vitamin C) was used as a reference inhibitor. The assay measurements were carried out using a micro plate reader (OPTIMax, Tunable) at 520 nm. The reaction rates were compared, and the percentages of inhibition caused by the presence of the test inhibitors were calculated. Each concentration was analysed in three independent experiments run in triplicate.

α-glucosidase = α-glucosidase (Saccharomyces cerevisiae, UniProt P53341); assay: Kinetic study of α-glucosidase (Lineweaver-Burk); type: biochemical; conditions: Lineweaver-Burk plot
Chain of α-glucosidase (P53341 whole entry): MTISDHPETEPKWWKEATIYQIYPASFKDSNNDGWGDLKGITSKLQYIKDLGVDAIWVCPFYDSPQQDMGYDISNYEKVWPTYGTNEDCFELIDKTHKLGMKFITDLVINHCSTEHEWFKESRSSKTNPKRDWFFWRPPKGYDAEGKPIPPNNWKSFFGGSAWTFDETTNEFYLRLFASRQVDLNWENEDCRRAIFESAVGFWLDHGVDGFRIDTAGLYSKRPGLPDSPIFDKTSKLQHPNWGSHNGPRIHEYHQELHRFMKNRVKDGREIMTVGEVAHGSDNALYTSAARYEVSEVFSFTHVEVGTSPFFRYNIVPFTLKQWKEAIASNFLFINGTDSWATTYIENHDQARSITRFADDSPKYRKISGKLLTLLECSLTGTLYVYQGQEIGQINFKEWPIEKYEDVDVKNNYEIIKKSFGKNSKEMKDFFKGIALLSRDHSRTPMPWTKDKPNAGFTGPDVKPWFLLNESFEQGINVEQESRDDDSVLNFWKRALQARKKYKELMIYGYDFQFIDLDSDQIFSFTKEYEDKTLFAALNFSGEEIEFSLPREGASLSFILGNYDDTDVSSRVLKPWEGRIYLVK
Experimental: To understand the inhibition mechanism of the synthesized compounds on α-glucosidase, an inhibition kinetics study was performed. […] In our evaluation of the kinetics of the enzyme, the Lineweaver-Burk plot of 1/V versus 1/[S] in the presence of different inhibitor concentrations gave a series of straight lines. […] Km increases with increasing concentration, while Vmax remains essentially constant.
A series of experiments was performed to calculate the inhibition kinetics of 5g. The tested concentrations of 5g were 0.00, 0.15 and 0.3. The concentration of substrate, p-nitrophenyl-α-D-glucopyranoside, was between 0.3125 and 10 mM in all the kinetics experiments. The pre-incubation and measurement times were the same as those discussed in the α-glucosidase inhibition assay procedure. The maximal initial velocity was determined from the initial linear portion of absorbance in the first five minutes following the addition of the enzyme at 30 s intervals. The type of inhibition of the enzyme was assessed by preparing Lineweaver-Burk plots of the inverse of the velocities (1/V) versus the inverse of the substrate concentration 1/[S] mM^−1. The EI dissociation constant, Ki, was determined by the secondary plot of 1/V versus the inhibitor concentration.

maltase = test system: maltase; set-up: method as in PMID 28482265; conditions: cited from earlier work
isomaltase = test system: isomaltase; set-up: method as in PMID 28482265; conditions: cited from earlier work
glucoamylase = test system: glucoamylase; set-up: method as in PMID 28482265; conditions: cited from earlier work

Structure (SMILES)	melting point [°C]	IC50 [1] [µM]	Free radical scavenging activity (%) [2]	type of inhibition (α-glucosidase)	inhibition of maltase (maltase) [%]	inhibition of isomaltase (isomaltase) [%]	inhibition of glucoamylase (glucoamylase) [%]
Oc1ccc(/N=N/c2cccc(Cl)c2Cl)cc1/C=N/N=C/c1cc(/N=N/c2cccc(Cl)c2Cl)ccc1O [Compound 5b, (E)-2,2’-((1E,1’E)-Hydrazine-1,2-diylidenebis(methanylylidene))bis(4-((E)-(2,3-dichlorophenyl)diazenyl)phenol)]	222	28.4 ± 2.17	–	–	–	–	–
O=[N+]([O-])c1ccc(/N=N/c2ccc(O)c(/C=N/N=C/c3cc(/N=N/c4ccc([N+](=O)[O-])cc4)ccc3O)c2)cc1 [Compound 5g, (E)-2,2’-((1E,1’E)-Hydrazine-1,2-diylidenebis(methanylylidene))bis(4-((E)-(4-nitrophenyl)diazenyl)phenol)]	215	0.438 ± 0.042	did not show significant scavenging potencies	competitive	–	–	–
O=[N+]([O-])c1ccc(/N=N/c2ccc(O)c(/C=N/N=C/c3cc(/N=N/c4ccc([N+](=O)[O-])cc4[N+](=O)[O-])ccc3O)c2)c([N+](=O)[O-])c1 [Compound 5a, (E)-2,2’-((1E,1’E)-Hydrazine-1,2-diylidenebis(methanylylidene))bis(4-((E)-(2,4-dinitrophenyl)diazenyl)phenol)]	275	8.54 ± 0.653	–	–	–	–	–
C[C@H]1O[C@H](O[C@H]2[C@H](O)[C@@H](O)[C@@H](O[C@H]3[C@H](O)[C@@H](O)C(O)O[C@@H]3CO)O[C@@H]2CO)[C@H](O)[C@@H](O)[C@@H]1N[C@H]1C=C(CO)[C@@H](O)[C@H](O)[C@H]1O (some centres unmarked) [Acarbose, acarbose]	–	–	–	–	60	10	90

More lines, main results first:

melting point [°C]	IC50 [1] [µM]	Structure (SMILES)	Free radical scavenging activity (%) [2]	type of inhibition (α-glucosidase)	inhibition of maltase (maltase) [%]	inhibition of isomaltase (isomaltase) [%]	inhibition of glucoamylase (glucoamylase) [%]
225	28.5 ± 2.08	NS(=O)(=O)c1ccc(/N=N/c2ccc(O)c(/C=N/N=C/c3cc(/N=N/c4ccc(S(N)(=O)=O)cc4)ccc3O)c2)cc1 [Compound 5e, 4,4’-((1E,1’E)-(((1E,1’E)-Hydrazine-1,2-diylidenebis(methanylylidene))bis(4-hydroxy-3,1-phenylene))bis(diazene-2,1-diyl))dibenzenesulfonamide]	–	–	–	–	–
210	0.59 ± 0.012	Oc1ccc(/N=N/c2cccc(Cl)c2)cc1/C=N/N=C/c1cc(/N=N/c2cccc(Cl)c2)ccc1O [Compound 5h, (E)-2,2’-((1E,1’E)-Hydrazine-1,2-diylidenebis(methanylylidene))bis(4-((E)-(3-chlorophenyl)diazenyl)phenol)]	–	–	–	–	–
205	9.72 ± 0.863	Oc1ccc(/N=N/c2ccc(Cl)cc2)cc1/C=N/N=C/c1cc(/N=N/c2ccc(Cl)cc2)ccc1O [Compound 5d, (E)-2,2’-((1E,1’E)-Hydrazine-1,2-diylidenebis(methanylylidene))bis(4-((E)-(4-chlorophenyl)diazenyl)phenol)]	did not show significant scavenging potencies	–	–	–	–
240	4.29 ± 0.328	O=S(=O)([O-])c1ccc(/N=N/c2ccc(O)c(/C=N/N=C/c3cc(/N=N/c4ccc(S(=O)(=O)[O-])cc4)ccc3O)c2)cc1.[Na+].[Na+] [Compound 5f, Sodium 4,4’-((1E,1’E)-(((1E,1’E)-hydrazine-1,2-diylidenebis(methanylylidene))bis(4-hydroxy-3,1-phenylene))bis(diazene-2,1-diyl))dibenzenesulfonate]	did not show significant scavenging potencies	–	–	–	–
195	9.55 ± 0.73	Oc1ccc(/N=N/c2ccccc2Cl)cc1/C=N/N=C/c1cc(/N=N/c2ccccc2Cl)ccc1O [Compound 5c, (E)-2,2’-((1E,1’E)-Hydrazine-1,2-diylidenebis(methanylylidene))bis(4-((E)-(2-chlorophenyl)diazenyl)phenol)]	–	–	–	–	–
